Source: US12227496B2 (BRISTOL-MYERS SQUIBB COMPANY, priority 2019, dated 2025)

Target: T1, human FXR (Homo sapiens, UniProt Q96RI1)
T1 construct: expressed in transfected cells; host or cells: HEK293 cells stably carrying a 5xGal4-response-element firefly luciferase reporter, transiently transfected with pcDNA3.1-Gal4-FXR
T1 sequence (Q96RI1 262-486 limits assumed): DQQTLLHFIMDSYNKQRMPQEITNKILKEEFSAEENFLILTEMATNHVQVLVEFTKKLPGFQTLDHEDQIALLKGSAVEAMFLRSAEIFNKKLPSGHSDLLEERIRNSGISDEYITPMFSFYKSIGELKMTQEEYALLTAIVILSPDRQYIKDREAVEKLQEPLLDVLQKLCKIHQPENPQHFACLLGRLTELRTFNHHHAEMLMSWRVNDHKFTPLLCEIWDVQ
Assay: transient human FXR/Gal4-luciferase reporter assay
Type: cell-based
Details: Gal4-hFXR LBD fusion, luciferase reporter in HEK293 cells; response relative to 8 μM GW-4064
How it was run: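 HEK293 cells stably carrying a 5×Gal4-response-element firefly luciferase reporter were transiently transfected with Gal4-hFXR. They were then incubated overnight at 37 °C with compound serial dilutions in medium containing 10% charcoal/dextran-stripped FBS. Luminescence was read after Steady-Glo addition.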

Compound	EC50
CCn1cc(-c2cccc(N(CC34CCC(c5nc(C6CC6)no5)(CC3)CC4)C(=O)C3CCOCC3)c2)oc1=O [Example 51, N-((4-(3-cyclopropyl-1,2,4-oxadiazol-5-yl)bicyclo[2.2.2]octan-1-yl)methyl)-N-(3-(3-ethyl-2-oxo-2,3-dihydrooxazol-5-yl)phenyl)tetrahydro-2H-pyran-4-carboxamide]	1190 nM
O=C(C1CCOCC1)N(CC12CCC(c3nc(C4CC4)no3)(CC1)CC2)c1cccc(-c2nnc(C3CC3)o2)c1 [Example 54, N-((4-(3-cyclopropyl-1,2,4-oxadiazol-5-yl)bicyclo[2.2.2]octan-1-yl)methyl)-N-(3-(5-cyclopropyl-1,3,4-oxadiazol-2-yl)phenyl)tetrahydro-2H-pyran-4-carboxamide]	373 nM
O=C(N1CCOCC1)N(CC12CCC(c3nc(C4CC4)no3)(CC1)CC2)c1cccc(-c2nc(C3CC3)no2)c1 [Example 56, N-((4-(3-cyclopropyl-1,2,4-oxadiazol-5-yl)bicyclo[2.2.2]octan-1-yl)methyl)-N-(3-(3-cyclopropyl-1,2,4-oxadiazol-5-yl)phenyl)morpholine-4-carboxamide]	739 nM
O=C(N1CCCCC1)N(CC12CCC(c3nc(C4CC4)no3)(CC1)CC2)c1cccc(-c2nc(C3CC3)no2)c1 [Example 57, N-((4-(3-cyclopropyl-1,2,4-oxadiazol-5-yl)bicyclo[2.2.2]octan-1-yl)methyl)-N-(3-(3-cyclopropyl-1,2,4-oxadiazol-5-yl)phenyl) piperidine-1-carboxamide]	819 nM
O=C(N1CCC(F)(F)CC1)N(CC12CCC(c3nc(C4CC4)no3)(CC1)CC2)c1cccc(-c2nc(C3CC3)no2)c1 [Example 58, N-((4-(3-cyclopropyl-1,2,4-oxadiazol-5-yl)bicyclo[2.2.2]octan-1-yl)methyl)-N-(3-(3-cyclopropyl-1,2,4-oxadiazol-5-yl)phenyl)-4,4-difluoropiperidine-1-carboxamide]	413 nM
CC1CCN(C(=O)N(CC23CCC(c4nc(C5CC5)no4)(CC2)CC3)c2cccc(-c3nc(C4CC4)no3)c2)CC1 [Example 60, N-((4-(3-cyclopropyl-1,2,4-oxadiazol-5-yl)bicyclo[2.2.2]octan-1-yl)methyl)-N-(3-(3-cyclopropyl-1,2,4-oxadiazol-5-yl)phenyl)-4-methylpiperidine-1-carboxamide]	1020 nM
O=C(N1CCC(O)CC1)N(CC12CCC(c3nc(C4CC4)no3)(CC1)CC2)c1cccc(-c2nc(C3CC3)no2)c1 [Example 61, N-((4-(3-cyclopropyl-1,2,4-oxadiazol-5-yl)bicyclo[2.2.2]octan-1-yl)methyl)-N-(3-(3-cyclopropyl-1,2,4-oxadiazol-5-yl)phenyl)-4-hydroxypiperidine-1-carboxamide]	3670 nM
CC1CN(C(=O)N(CC23CCC(c4nc(C5CC5)no4)(CC2)CC3)c2cccc(-c3nc(C4CC4)no3)c2)CC(C)O1 (stereo not shown) [Example 63, N-((4-(3-cyclopropyl-1,2,4-oxadiazol-5-yl)bicyclo[2.2.2]octan-1-yl)methyl)-N-(3-(3-cyclopropyl-1,2,4-oxadiazol-5-yl)phenyl)-2,6-dimethylmorpholine-4-carboxamide]	1130 nM
O=C(N1CCC(N2CCCCC2)CC1)N(CC12CCC(c3nc(C4CC4)no3)(CC1)CC2)c1cccc(-c2nc(C3CC3)no2)c1 [Example 64, N-((4-(3-cyclopropyl-1,2,4-oxadiazol-5-yl)bicyclo[2.2.2]octan-1-yl)methyl)-N-(3-(3-cyclopropyl-1,2,4-oxadiazol-5-yl)phenyl)-[1,4′-bipiperidine]-1′-carboxamide]	4820 nM
CC(C)(C)c1noc(C23CCC(CN(C(=O)C4CCOCC4)c4cccc(-c5nc(C6CC6)no5)c4)(CC2)CC3)n1 [Example 69, N-((4-(3-(tert-butyl)-1,2,4-oxadiazol-5-yl)bicyclo[2.2.2]octan-1-yl)methyl)-N-(3-(3-cyclopropyl-1,2,4-oxadiazol-5-yl)phenyl)tetrahydro-2H-pyran-4-carboxamide]	162 nM
COc1cc(-c2cccc(N(CC34CCC(c5nc(C)no5)(CC3)CC4)C(=O)C3CCCCC3)c2)ccn1 [Example 73, N-(3-(2-methoxypyridin-4-yl)phenyl)-N-((4-(3-methyl-1,2,4-oxadiazol-5-yl)bicyclo[2.2.2]octan-1-yl)methyl)cyclohexane carboxamide]	517 nM
COc1cccc(-c2cccc(N(CC34CCC(c5nc(C6CC6)no5)(CC3)CC4)C(=O)C3CCCCC3)c2)c1 [Example 74, N-((4-(3-cyclopropyl-1,2,4-oxadiazol-5-yl)bicyclo[2.2.2]octan-1-yl)methyl)-N-(3′-methoxy-[1,1′-biphenyl]-3-yl)cyclohexanecarboxamide]	151 nM

Second part, the compound after the results:

EC50	Compound
105 nM	COCc1nc(-c2cccc(N(CC34CCC(c5nc(C6CC6)no5)(CC3)CC4)C(=O)C3CCCCC3)c2)cs1 [Example 49, N-((4-(3-cyclopropyl-1,2,4-oxadiazol-5-yl)bicyclo[2.2.2]octan-1-yl)methyl)-N-(3-(2-(methoxymethyl)thiazol-4-yl)phenyl)cyclohexanecarboxamide]
334 nM	Cn1nc(-c2cccc(N(CC34CCC(c5nc(C6CC6)no5)(CC3)CC4)C(=O)C3CCOCC3)c2)cc1C1CC1 [Example 50, N-((4-(3-cyclopropyl-1,2,4-oxadiazol-5-yl)bicyclo[2.2.2]octan-1-yl)methyl)-N-(3-(5-cyclopropyl-1-methyl-1H-pyrazol-3-yl)phenyl)tetrahydro-2H-pyran-4-carboxamide]
189 nM	COCc1coc(-c2cccc(N(CC34CCC(c5nc(C6CC6)no5)(CC3)CC4)C(=O)C3CCOCC3)c2)n1 [Example 53, N-((4-(3-cyclopropyl-1,2,4-oxadiazol-5-yl)bicyclo[2.2.2]octan-1-yl)methyl)-N-(3-(4-(methoxymethyl)oxazol-2-yl)phenyl)tetrahydro-2H-pyran-4-carboxamide]
1380 nM	CN1CCN(C(=O)N(CC23CCC(c4nc(C5CC5)no4)(CC2)CC3)c2cccc(-c3nc(C4CC4)no3)c2)CC1 [Example 59, N-((4-(3-cyclopropyl-1,2,4-oxadiazol-5-yl)bicyclo[2.2.2]octan-1-yl)methyl)-N-(3-(3-cyclopropyl-1,2,4-oxadiazol-5-yl)phenyl)-4-methylpiperazine-1-carboxamide]
307 nM	COc1cccc(-c2cccc(N(CC34CCC(c5nc(C)no5)(CC3)CC4)C(=O)C3CCCCC3)c2)c1 [Example 72, N-(3′-methoxy-[1,1′-biphenyl]-3-yl)-N-((4-(3-methyl-1,2,4-oxadiazol-5-yl)bicyclo[2.2.2]octan-1-yl)methyl)cyclohexanecarboxamide]
129 nM	COc1cc(-c2cccc(N(CC34CCC(c5nc(C6CC6)no5)(CC3)CC4)C(=O)C3CCCCC3)c2)ccn1 [Example 75, N-((4-(3-cyclopropyl-1,2,4-oxadiazol-5-yl)bicyclo[2.2.2]octan-1-yl)methyl)-N-(3-(2-methoxypyridin-4-yl)phenyl)cyclohexane carboxamide]
387 nM	COc1ccc(-c2cccc(N(CC34CCC(c5nc(C)no5)(CC3)CC4)C(=O)C3CCCCC3)c2)cc1 [Example 76, N-(4′-methoxy-[1,1′-biphenyl]-3-yl)-N-((4-(3-methyl-1,2,4-oxadiazol-5-yl)bicyclo[2.2.2]octan-1-yl)methyl)cyclohexane carboxamide]
